One data set has as its system Swiss male mice. Description: Analgesic activity, phenylquinone test (Siegmund et al), oral administration in Swiss male mice. The class given is in vivo. The settings on record: Mus musculus. From the text:
(a) Analgesic activity.-Analgesic activity has been determined in Swiss male mice by orally administering the compounds according to the phenylquinone test, as described by Siegmund et al (Proc. Soc.Exp.Biol.Med., 95, 729, 1957). From the analgesia values obtained, the ED50 for each compound has been calculated.

The nature of data set [1]: Acute toxicity, oral administration in female and male Swiss mice (Reed-Muench method as modified by Pizzi). The following applies: mouse, in vivo. From the text: (b) Acute toxicity.-Acute toxicity has been determined in both female and male Swiss mice by oral administration according to the method by Reed-Muench as modified by Pizzi (Human Biology, 22(3), 151-190, 1950).

In general, ED50 refers to the dose that gives a 50% effect, or the effect in half of the subjects. What is called LD50 is the dose at which mortality reaches 50%. A high value points to lower toxicity.

Turning to `C[C@H](O)[C@@H](c1ccc2c(c1)OCO2)N1CCOCC1` (relative stereo) [Example 2, d,l-erythro-1-(3',4'-methylenedioxyphenyl)-1-morpholine-propane-2-ol], it took a dose of 25.7 mg/kg to reach the 50% effect level in the data set with Swiss male mice (ED50). For the same compound, in data set [1], the LD50 was 1200 mg/kg. With `C[C@H](O)[C@@H](c1ccc2c(c1)OCO2)N(C)C1CCCCC1` (relative stereo) [Example 11, d,l-erythro-1-(3',4'-methylenedioxyphenyl)-1-(N-methylcyclohexylamino)-propane-2-ol], the ED50 with Swiss male mice is 29.8 mg/kg. For the same compound, the LD50 in data set [1] stood at 167 mg/kg. With `CC(=O)Oc1ccccc1C(=O)O` [Acetylsalicylic acid, reference compound], the ED50 in the data set on Swiss male mice came out at 72 mg/kg. For `C[C@H](O)[C@@H](c1ccc2c(c1)OCO2)N1CCC(O)CC1` (relative stereo) [Example 6, d,l-erythro-1-(3',4'-methylenedioxyphenyl)-1-(4-hydroxypiperidine)-propane-2-ol], the 50% effect level with Swiss male mice (ED50) was put at a dose of 109 mg/kg. Moreover, in data set [1], the LD50 came to 1060 mg/kg. On to `C[C@H](O)[C@H](NC1CC1)c1ccc2c(c1)OCO2` (relative stereo) [Example 12, d,l-erythro-1-(3',4'-methylenedioxyphenyl)-1-cyclopropylaminopropane-2-ol], for which the ED50 in the data set with Swiss male mice worked out at 62.3 mg/kg. The LD50 in data set [1] is 780 mg/kg.

For `C[C@H](O)[C@@H](c1ccc2c(c1)OCO2)N1CCCCC1` (relative stereo) [Example 5, d,l-erythro-1-(3',4'-methylenedioxyphenyl)-1-piperidinepropane-2-ol], in the data set on Swiss male mice, the 50% effect level (ED50) was put at a dose of 33.3 mg/kg. This compound also registered an LD50 in data set [1] of 277 mg/kg. Compound `C[C@H](O)[C@@H](c1ccc2c(c1)OCO2)N1CCN(Cc2ccccc2)CC1` (relative stereo) [Example 3, d,l-erythro-1-(3',4'-methylenedioxyphenyl)-1-(4-benzyl-1-piperazinyl)propane-2-ol] had an ED50 in the data set on Swiss male mice of 29.7 mg/kg. This compound also gave a median lethal dose (LD50) in data set [1] of 256 mg/kg.

Compound `C[C@H](O)[C@H](NCc1ccccc1)c1ccc2c(c1)OCO2` (relative stereo) [Example 9, d,l-erythro-1-(3',4'-methylenedioxyphenyl)-1-benzylaminopropane-2-ol] registered an ED50 in the data set on Swiss male mice of 28.8 mg/kg. The LD50 in data set [1] came to 252 mg/kg.

Regarding `C[C@H](O)[C@@H](c1ccc2c(c1)OCO2)N(C)Cc1ccccc1` (relative stereo) [Example 10, d,l-erythro-1-(3',4'-methylenedioxyphenyl)-1-(N-methylbenzylamino)-propane-2-ol], the ED50 in the data set with Swiss male mice stood at 33.8 mg/kg. This compound also gave an LD50 in data set [1] of 360 mg/kg. For the compound `CCN(CC)[C@H](c1ccc2c(c1)OCO2)[C@H](C)O` (relative stereo) [Example 4, d,l-erythro-1-(3',4'-methylenedioxyphenyl)-1-diethylamino-propane-2-ol], the ED50 with Swiss male mice came to 107 mg/kg. Moreover, in data set [1], the LD50 turned out to be 317 mg/kg.

In the data set on Swiss male mice, `Cc1c(N(C)C)c(=O)n(-c2ccccc2)n1C` [Aminophenazone, reference compound] returned an ED50 of 23.4 mg/kg. Consider `C[C@H](O)[C@@H](c1ccc2c(c1)OCO2)N1CCCCCC1` (relative stereo) [Example 8, d,l-erythro-1-(3',4'-methylenedioxyphenyl)-1-homopiperidino-propane-2-ol], for which the ED50 with Swiss male mice is 45.5 mg/kg. The compound also showed an LD50 in data set [1] of 233 mg/kg.

`C[C@H](O)[C@H](NC1CCCCC1)c1ccc2c(c1)OCO2` (relative stereo) [Example 13, d,l-erythro-1-(3',4'-methylenedioxyphenyl)-1-cyclohexylaminopropane-2-ol] showed an ED50 in the data set on Swiss male mice of 31.7 mg/kg. In addition, in data set [1], the LD50 was found to be 245 mg/kg. In turn, `C[C@H](O)[C@@H](c1ccc2c(c1)OCO2)N1CCCC1` (relative stereo) [Example 7, d,l-erythro-1-(3',4'-methylenedioxyphenyl)-1-pyrrolidinopropane-2-ol] registered an ED50 with Swiss male mice of 140 mg/kg. In addition, in data set [1], the LD50 amounted to 599 mg/kg.

In the case of `COc1ccc2c3c1O[C@H]1[C@@H](O)C=C[C@H]4[C@@H](C2)N(C)CC[C@@]341` [Codeine, reference compound], it took a dose of 1.97 mg/kg to reach the 50% effect level in the data set on Swiss male mice (ED50).

(Values after patent US4535159A, “Process for producing 1-position amino-derivatives of 1-(3',4'-methylenedioxyphenyl)propane-2-ol” (Ferrer Internacional, S.A., priority 1981, dated 1985).)
